Literature values, collected in patent US5707620A (priority 1995, dated 1998).

Test system: hemagglutinins
Details: cited from earlier work

Structure (SMILES)	inhibition of activity of hemagglutinins
NCCCC[C@H](N)C(=O)O [lysine]	to a lesser extent, lysine
N=C(N)NCCC[C@H](N)C(=O)O [arginine]	inhibited by arginine
